One experiment concerns the target T1, 5-Lipoxygenase (Homo sapiens, UniProt P09917).
T1 construct: from tissue; host or cells: human heparinized whole blood (endogenous enzyme of the blood leukocytes)
T1 sequence (P09917 1-674): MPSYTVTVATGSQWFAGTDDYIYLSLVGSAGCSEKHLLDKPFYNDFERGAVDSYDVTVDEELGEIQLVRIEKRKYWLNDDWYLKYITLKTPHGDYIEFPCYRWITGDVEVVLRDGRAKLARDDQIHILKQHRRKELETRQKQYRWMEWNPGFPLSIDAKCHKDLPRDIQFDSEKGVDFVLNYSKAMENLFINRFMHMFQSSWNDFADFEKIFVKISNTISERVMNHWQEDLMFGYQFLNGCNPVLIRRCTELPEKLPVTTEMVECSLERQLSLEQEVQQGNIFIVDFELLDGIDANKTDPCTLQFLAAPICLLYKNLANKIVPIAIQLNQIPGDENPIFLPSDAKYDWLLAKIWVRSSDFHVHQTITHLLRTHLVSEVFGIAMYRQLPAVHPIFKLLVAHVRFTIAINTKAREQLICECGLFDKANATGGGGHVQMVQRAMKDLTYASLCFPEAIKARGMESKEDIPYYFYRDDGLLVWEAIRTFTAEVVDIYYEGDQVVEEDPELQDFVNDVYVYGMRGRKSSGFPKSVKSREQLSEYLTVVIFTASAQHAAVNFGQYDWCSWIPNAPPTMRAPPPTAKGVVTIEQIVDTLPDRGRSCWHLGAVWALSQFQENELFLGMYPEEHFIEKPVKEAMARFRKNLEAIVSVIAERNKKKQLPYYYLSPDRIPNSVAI
Kind of experiment: Calcium ionophore-induced LTB4 biosynthesis in human whole blood. In kind it is cell-based. Conditions: human heparinized whole blood, 15 min preincubation at 37° C., A23187 8.3 μM, 30 min, LTB4 by radioimmunoassay; read-out: IC50 against 5-Lipoxygenase from Stimulated LTB4 Formation in Human Whole Blood. As to the method: Inhibition of leukotriene biosynthesis was evaluated in an assay, involving calcium ionophore-induced LTB4 biosynthesis expressed human whole blood. […] The methanol extract was analyzed for LTB4 using a commercially available radioimmunoassay.

Experiment [1] concerns biosynthesis of leukotrienes. Kind of experiment: Inhibition of leukotriene biosynthesis in vivo after oral administration, rat peritoneal anaphylaxis model. To be noted: percent inhibition vs mean of control group, oral gavage 100 μmoles/kg one hour prior to antigen challenge, peritoneal fluids 15 minutes after challenge. As to the method: Inhibition of the biosynthesis of leukotrienes in vivo after oral administration of compound was determined using a rat peritoneal anaphylaxis model in a similar manner as that described by Young and coworkers (Young, P. R.; Dyer, R. D.; Carter, G. W. Fed. Proc., Fed. Am. Soc. Exp. Biol. 1985, 44, 1185). In this model rats were injected intraperitoneally (ip) with rabbit antibody to bovine serum albumin (BSA) and three hours later injected ip with BSA to induce an antigen-antibody response. Rats were sacrificed 15 minutes after this challenge and the peritoneal fluids were collected and analyzed for leukotriene levels. Test compounds were administered by gavage one hour prior to the antigen challenge. Percent inhibition values were determined by comparing the treatment group to the mean of the control group.

Molecules are shown by their SMILES. pIC50: −log10 of the molar value. Where only a bound is given, the exact number is not on record here.

Regarding `NC(=O)N(O)CC1CCCC1` [Example 3, N-cyclopentylmethyl-N-hydroxyurea], the pIC50 at 5-Lipoxygenase is 6.15. The compound further registered an inhibition at 100 µmol/kg in experiment [1] of 83%.
Regarding `NC(=O)N(O)CC1CCC1` [Example 2, N-cyclobutylmethyl-N-hydroxyurea], the pIC50 on 5-Lipoxygenase was 6.05. Also, the inhibition at 100 µmol/kg in experiment [1] was found to be 92%.
Turning to `NC(=O)N(O)CC1CCCCC1` [Example 4, N-hydroxy-N-1-(1-cyclohexyl)methylurea], at 5-Lipoxygenase, the pIC50 is 5.96. Besides, the inhibition at 100 µmol/kg in experiment [1] was found to be 64%.
As to `NC(=O)N(O)C[C@H]1C[C@@H]1C1CC1` (relative stereo) [Example 1, N-1-(trans-2-cyclopropylcyclopropylmethyl)-N-hydroxyurea], the negative logarithm of the IC50 (pIC50) at 5-Lipoxygenase is > 6.52. This compound also returned an inhibition at 100 µmol/kg in experiment [1] of 96%.
As for `NC(=O)N(O)CC1CCCCCC1` [Example 5, N-hydroxy-N-1-(1-cycloheptyl)methylurea], the pIC50 on 5-Lipoxygenase is > 5.82.

Broadly, the pIC50 is the negative decadic logarithm of the IC50, by convention in mol/L. For orientation: inhibition means the drop in the measured response relative to a control, in per cent.

These data come from patent US5326787A, “Cycloalkyl N-hydroxy derivatives having lipoxygenase inhibitory activity” (Abbott Laboratories, priority 1993, dated 1994).
